One data set deals with MCF7. As to the kind of experiment: Cytotoxicity against human MCF7 cells. The format is functional. As to conditions: read-out: ED50 (the source's name).
The test system of the next data set is Lu1. Put plainly: Cytotoxicity against human Lu1 cells. It is filed as functional. As to conditions: read-out: ED50 (the source's name).
A further data set has as its system LNCaP. Put plainly: Cytotoxicity against human LNCAP cells. As to conditions: read-out: ED50 (the source's name). It is filed as functional.
The nature of data set [1]: Cytotoxicity against HUVEC. It is filed as cell-based. As to conditions: human, HUVEC cells; read-out: ED50 (the source's name).
The test system of the next data set is P388. Put plainly: In vivo antitumor activity against mouse P388 cellsleukemia model at 4.5 mg/kg, ip. It is filed as functional. The conditions noted are these: route intraperitoneal.

The structures appear in SMILES notation. Values after ≈ are worked out from the molar mass of the structure shown.

For the compound `COc1ccc([C@@]23Oc4cc5c(c(OC)c4[C@]2(O)[C@H](OC(C)=O)[C@H](C(=O)N(C)C)[C@H]3c2ccccc2)OCO5)cc1OC`, the EC50 is 0.8 µg/mL (≈ 1.35 µM) with MCF7, 0.5 µg/mL (≈ 0.845 µM) in the data set with Lu1 and 0.3 µg/mL (≈ 0.507 µM) in the data set with LNCaP. Moreover, the CC50 in data set [1] was 0.5 µg/mL (≈ 0.845 µM).
On to `COc1ccc([C@]23Oc4cc5c(c(OC)c4[C@](O)([C@H](C(=O)N4CCCC4NC(=O)C=C(C)C)[C@H]2c2ccccc2)[C@@H]3O)OCO5)cc1` (stereo not given in full) [19,20-DEHYDROEDULIRIN A], for which the EC50 in the data set with MCF7, in the data set on Lu1 and in the data set on LNCaP was > 5 µg/mL each time. Moreover, the CC50 in data set [1] is > 5 µg/mL.
On to `COC(=O)[C@@]1(c2ccc(OC)cc2)Oc2cc3c(c(OC)c2C(=O)[C@H](C(=O)N2CCC[C@@H]2NC(=O)C=C(C)C)[C@H]1c1ccccc1)OCO3` [19,20-DEHYDROEDULISONE A], for which the EC50 in the data set on MCF7, in the data set on Lu1 and in the data set on LNCaP was > 5 µg/mL throughout. In addition, the CC50 in data set [1] is > 5 µg/mL.
With `COc1ccc([C@]23Oc4cc5c(c(OC)c4[C@](O)([C@H](C(=O)N4CCCC4NC(=O)CC(C)C)[C@H]2c2ccccc2)[C@@H]3O)OCO5)cc1` (stereo not given in full) [EDULIRIN A], the EC50 with MCF7, with Lu1 and in the data set on LNCaP was > 5 µg/mL each time. Also, the CC50 in data set [1] was > 5 µg/mL.
A word on the T/C: it is the result in the treated group divided by that in the control group, in per cent. Regarding `COc1ccc([C@@]23Oc4cc5c(c(OC)c4[C@]2(O)[C@H](OC(C)=O)[C@H](C(=O)N(C)C)[C@H]3c2ccccc2)OCO5)cc1`, the results for the EC50 in the data set with MCF7, in the data set with Lu1 and with LNCaP were 0.02 µg/mL (≈ 0.0356 µM), 0.001 µg/mL (≈ 0.00178 µM) and 0.01 µg/mL (≈ 0.0178 µM), respectively. The T/C in the data set with P388 is on record as 110%. The CC50 in data set [1] was 0.5 µg/mL (≈ 0.89 µM).
In the case of `COC1CCCN1C(=O)/C=C/c1ccccc1` (stereo not given) [AGLAMIDE D], the EC50 in the data set on MCF7, in the data set on Lu1 and in the data set with LNCaP was > 5 µg/mL each time. Besides, the CC50 in data set [1] is > 5 µg/mL.
As for `COc1cc2ccc(=O)oc2cc1O` [SCOPOLETIN], the EC50 in the data set on MCF7, with Lu1 and in the data set on LNCaP was > 5 µg/mL throughout. The CC50 in data set [1] was > 5 µg/mL.
`COc1ccc([C@]23Oc4cc5c(c(OC)c4[C@](O)([C@H](c4ccccc4)[C@H]2C(=O)N2CCCC2NC(=O)CC(C)C)[C@@H]3O)OCO5)cc1` (stereo not given in full) [EDULIRIN B]: the EC50 in the data set with MCF7, with Lu1 and with LNCaP was > 5 µg/mL throughout. In data set [1], the CC50 is > 5 µg/mL.
For `CS/C=C/C(=O)NC1CCCN1C(=O)/C=C/c1ccccc1` (stereo not given) [AGLAMIDE A], the EC50 in the data set on MCF7, in the data set with Lu1 and in the data set on LNCaP was > 5 µg/mL in each case. For the same compound, the CC50 in data set [1] is > 5 µg/mL.
`COc1ccc([C@]23Oc4cc5c(c(OC)c4[C@](O)([C@@H](c4ccccc4)[C@@H]2C(=O)N2CCCC2NC(=O)CC(C)C)[C@@H]3O)OCO5)cc1` (stereo not given in full) [ISOEDULIRIN A]: the EC50 in the data set on MCF7, with Lu1 and in the data set with LNCaP was > 5 µg/mL throughout. Also, the CC50 in data set [1] was > 5 µg/mL.
Regarding `COc1ccc([C@@]23Oc4cc5c(c(OC)c4[C@]2(O)[C@H](O)[C@H](C(=O)N(C)C)[C@H]3c2ccccc2)OCO5)cc1` [AGLAROXIN A], the results for the EC50 in the data set on MCF7, in the data set with Lu1 and in the data set on LNCaP were 0.06 µg/mL (≈ 0.115 µM), 0.04 µg/mL (≈ 0.077 µM) and 0.02 µg/mL (≈ 0.0385 µM), respectively. For the same compound, the CC50 in data set [1] was 0.1 µg/mL (≈ 0.192 µM).
The corresponding values for `COc1ccc(C2C(=O)Oc3cc4c(c(OC)c32)OCO4)cc1` (stereo not given) [AGLALACTONE] are > 5 µg/mL, > 5 µg/mL, > 5 µg/mL and > 5 µg/mL.
Taken in the same sequence, the figures for `COc1ccc([C@]23Oc4cc5c(c(OC)c4[C@](O)([C@H](C(=O)N4CCCC4NC(=O)CC(C)C)[C@H]2c2ccccc2)[C@@H]3OC(C)=O)OCO5)cc1` (stereo not given in full) were > 5 µg/mL, > 5 µg/mL, > 5 µg/mL and > 5 µg/mL.
In the case of `CC(C)CC(=O)NC1CCCN1C(=O)/C=C/c1ccccc1` (stereo not given) [AGLAMIDE C], the EC50 in the data set on MCF7, with Lu1 and in the data set on LNCaP was > 5 µg/mL each time. For the same compound, the CC50 in data set [1] is > 5 µg/mL.
On to `COc1ccc(-c2oc3cc(OC)c(OC)c(O)c3c(=O)c2OC)cc1`, for which the EC50 with MCF7, in the data set with Lu1 and with LNCaP was > 5 µg/mL each time. In data set [1], the CC50 was > 5 µg/mL.
With `C[S+]([O-])/C=C/C(=O)NC1CCCN1C(=O)/C=C/c1ccccc1` (stereo not given) [AGLAMIDE B], the EC50 in the data set on MCF7, in the data set with Lu1 and with LNCaP was > 5 µg/mL throughout. Further, in data set [1], the CC50 was > 5 µg/mL.
